Laboratory results published in article PMC6973020, “Quinoline‐Conjugated Ruthenacarboranes: Toward Hybrid Drugs with a Dual Mode of Action” (Chemmedchem, 2019).

Tests used:
Format in all cases: cell-based, human
LN229 cells [1] = assay: AnnV/PI double staining, flow cytometry, LN229; settings: LN229, 40 μM, 72 h
Protocol: (§1) Flow cytometry. For gaining better insights into the mechanisms of action of the ruthenium complexes, MCF‐7 and LN229 cells incubated with an IC50 dose of 3 or 4, were analyzed via flow cytometry. Several staining protocols were carried out in parallel, in independent experiments: i) AnnV/PI for the detection of apoptotic cell death, ii) AO for the detection of acidic vacuoles, iii) ApoStat for checking caspase activation, iv) CFSE for detecting interference with cellular proliferation, and v) DAPI for the detection of morphological signs of apoptosis. Untreated cells or cells treated only with BSA (control) were also measured, as reference for BSA‐free and BSA‐containing drug formulations, respectively. […] Channels FL1 (green emission), FL2 (orange emission) and/or FL3 (dark red emission) were used for fluorescence detection, according to the specific staining agent. Sideward Scatter (SSC) for MCF‐7 cells treated with 4 or BSA−4 was also analyzed, with respect to the control, for detection of shifts of cell granularity. […]
(§2) FCS, 2 mM L‐glutamine, 0.01% sodium pyruvate and antibiotics, at 37 °C in a humidified atmosphere with 5% CO2. […] Cells were counted and seeded in 96‐well plates and incubated overnight, as described above. […]
(§3) Staining Protocols for Flow Cytometric Analysis. […] Finally, cells were washed in PBS, resuspended in PBS (or AnnV‐binding buffer for AnnV/PI), and analysed. […]

LN229 cells [2] = assay: AO staining (acidic vesicles), LN229; settings: LN229, IC50 dose, 72 h, compared with cells treated with an IC50 dose of 3
Protocol: as §1
(§4) Staining Protocols for Flow Cytometric Analysis. […] Finally, cells were washed in PBS, resuspended in PBS (or AnnV‐binding buffer for AnnV/PI), and analysed. […] Cells were then washed, trypsinised, dissolved in PBS and analysed by CyFlow® Space Partec using the PartecFloMax® software (Partec GmbH, Münster, Germany). […]

LN229 cells [3] = assay: CFSE staining, flow cytometry, LN229; settings: LN229, 40 μM, 72 h
Protocol: as §1, §4

LN229 cells [4] = assay: DAPI staining, fluorescence microscopy, LN229; settings: LN229, 40 μM, 72 h
Protocol: as §1, §2, §3

In the case of “closo ‐[3‐(η^6‐p‐Cymene)‐1‐(quinolin‐8‐yl‐acetate)‐3,1,2‐RuC2B9H10] [Compound 4]”, the “early apoptotic (Ann+/PI−) cells” value (LN229 cells [1]; control 0.9 %) is reported as 9.0%, the “late apoptotic (Ann+/PI+) cells” value (LN229 cells [1]; control 7.4 %) is reported as 35% and the “number of acidic vesicles (AO staining)” value (LN229 cells [2]) is reported as “significantly lower”. For the same substance, the “cellular proliferation (CFSE staining)” value (LN229 cells [3]) was “strong inhibition of cellular proliferation” and the “morphological features of apoptosis (DAPI)” value (LN229 cells [4]) was “several typical morphological features of apoptosis”.
